Assay results as given in PubChem BioAssay (NCI).
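Grown in 96-well plates, cells were treated for 48 hours with each compound at five concentrations. Insufficient inhibition: endpoint recorded as highest concentration tested. Abbreviation: GI50, concentration required for 50% inhibition of growth. TGI: total growth inhibition.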

Columns and labels:
Experiment in all cases: NCI tumour cell line growth inhibition, 48 h
[1] = system: A498 renal
[2] = system: A549 NSCLC
[3] = system: LOX IMVI melanoma
[4] = system: SF-268 CNS
[5] = system: SK-MEL-28 melanoma
[6] = system: SK-MEL-5 melanoma
[7] = system: SNB-19 CNS
[8] = system: SNB-75 CNS
[9] = system: SR leukemia
[10] = system: MCF7 breast

Structure (SMILES)	TGI [1] [µM]	TGI [2] [µM]	TGI [3] [µM]	TGI [4] [µM]	TGI [5] [µM]	TGI [6] [µM]	TGI [7] [µM]	TGI [8] [µM]	GI50 [1] [µM]	GI50 [3] [µM]	GI50 [9] [µM]	GI50 [2] [µM]	GI50 [4] [µM]	GI50 [5] [µM]	GI50 [7] [µM]	GI50 [8] [µM]	TGI [9] [µM]	GI50 [10] [µM]	TGI [10] [µM]	GI50 [6] [µM]
CC(C)=Cc1cc(C(=O)Nc2ccc(Cl)c(Cl)c2)nc(N)n1	> 100	> 100	> 100	> 100	> 100	> 100	> 100	> 100												
O=C(/C=C\c1ccc(Cl)c(Cl)c1)c1ccc(Cl)cc1Cl	> 100	60.7	18.2	55.1		30.8	56.2	46.8	> 100	2.05	7.87									
COc1cc(/C=C2\CN(S(=O)(=O)c3ccccc3)C/C(=C\c3cc(CN4CCCC4)c(O)c(OC)c3)C2=O)cc(CN2CCCC2)c1O		> 100	1.14	4.06	3.56		3.08	2.71		0.332	0.458	3.61	1.45	1.88	1.49	1.27	> 100			
CC(C)OP(=O)(OC(C)C)C(=NCCN=C(NNc1ccc([N+](=O)[O-])cc1)P(=O)(OC(C)C)OC(C)C)NNc1ccc([N+](=O)[O-])cc1	60.3	> 100	> 100	> 100	> 100	> 100	> 100	> 100									> 100			
O=C(/C=C/c1ccncc1)c1cc(Cl)ccc1O	21.8	53.2	29.2	63.7	47.5	34.4	40.2	32.2	6.96	13.2		23	22.1	22.6	17.7	17.5		13.1	27.7	19.2
CC(=O)OC1COC(n2ccc3cc(Br)c([N+](=O)[O-])cc32)C(OC(C)=O)C1OC(C)=O (stereo not drawn)	78.9	92.3	40.7	> 100	> 100		> 100	75.2									> 100			
Cn1c2ccccc2c2cc(-c3ccccc3)c3c(c21)C(=O)c1ccccc1C3=O	> 100	79.1		91.8	37.5		> 100	> 100									31.4			
CC(=O)/C(=C\c1cccc([N+](=O)[O-])c1)C(=O)Nc1ccccc1C		> 100	> 100	> 100	> 100	> 100	> 100										> 100			
Clc1ccc(C(c2ccc(Cl)cc2)c2ccccn2)cc1		38.6	30.4	69.7		33	51.5	> 100									49.8			
Cc1ccc(S(=O)(=O)Nc2ccccc2C(=O)c2ccc(C)c(C)c2)cc1	> 100	> 100	> 100	> 100	> 100	> 100	> 100	> 100											> 100	
Brc1ccccc1C1SCc2nc3ccccc3n21 (stereo not drawn)		> 100	26	66.1		18.7		47.1									45.1			
OCCCCCNCc1cc2cc3c(cc2c2cc(OCc4ccccc4)ccc12)OCO3	14.2	2.89			3.23	2.8		3.09	3.57			1.55		1.82		1.72				1.48
COc1cc2c3c(n(C)c(=O)c2cc1OC)-c1cc2c(cc1/C3=C\CCN)OCO2	27.7	4.44	0.194	16.6	33.5		16.3	> 59.9	11.4	< 0.01		0.165	0.167	8.76	0.394	6.05		0.094	1.3	
COc1cc2c3c(n(C)c(=O)c2cc1OC)-c1cc2c(cc1/C3=C\CCCN)OCO2	18.2	> 100	2.52	66.9	> 100	13.8	> 100	31.6	2.49	1.06		4.3	4.93	18.8	18.7	11.2		3.95	42.8	2.99
OCC#Cc1ccccc1C#Cc1ccccc1		45	27.6	35.3	40.4	31.8	38.7	30.4		13.2		16.5	17.1	19.2	20.6	14.6		19.5	44.4	15.9
Cc1c2c(nn1-c1ccc(S(=O)(=O)/N=C3\SCCC(=O)N3c3ccccc3)cc1)-c1ccccc1CC2		> 100	> 100	> 100	> 100	> 100	> 100			> 100	65	> 100	35	> 100	> 100		> 100			95.9
CCc1cc(Cc2cc(CC)c(NC(=O)C(=O)Cc3ccccn3)c(CC)c2Cl)c(Cl)c(CC)c1NC(=O)C(=O)Cc1ccccn1	> 100	> 100	> 100	> 100	> 100	> 100	> 100	> 100									> 100			
C#CC1(O)CCC2C3CCc4cc(Oc5nc(F)nc(-c6c7ccccc7c7sc8ccccc8n67)n5)ccc4C3CC[C@@]21C (stereo partly drawn)		> 100		> 100	> 100	> 100	> 100	89.3									> 100			
COC(OC)C(C)CC(=O)N(C)C (stereo not drawn)	> 100	> 100	> 100	> 100	> 100	> 100	> 100	> 100												
CCOC(=O)CC(=O)ON(C)C(C)=O	> 100	> 100	> 100	> 100		> 100	> 100										> 100			
